Assay results from ChEMBL document CHEMBL1124428, “In vitro metabolic transformations of vinblastine: oxidations catalyzed by peroxidase” (J Med Chem, 1989).
≈ marks a conversion by molar mass, not a printed value.

Experiment: Inhibitory concentration against human T-cell leukemic cell line ([…]) in vitro
Assay type: functional

| IC50 | SMILES |
| --- | --- |
| 0.1 mg/L (≈ 0.123 µM) | CC[C@]1(O)C[C@@H]2CN(CCc3c([nH]c4ccccc34)[C@@](C(=O)OC)(c3cc4c(cc3OC)N(C)[C@H]3[C@@](O)(C(=O)OC)[C@H](OC(C)=O)[C@]5(CC)C=CCN6CC[C@]43[C@@H]65)C2)C1 [VINBLASTINE] |
| 0.025 mg/L (≈ 0.0303 µM) | CC[C@]1(O)C[C@H]2CN(CCc3c([nH]c4ccccc34)[C@@](C(=O)OC)(c3cc4c(cc3OC)N(C=O)[C@H]3[C@@](O)(C(=O)OC)[C@H](OC(C)=O)[C@]5(CC)C=CCN6CC[C@]43[C@@H]65)C2)C1 [VINCRISTINE] |
| 0.4 mg/L | CC[C@]12CN3CCc4c([nH]c5ccccc45)[C@@](C(=O)OC)(c4cc5c(cc4OC)N(C)[C@H]4[C@@](O)(C(=O)OC)[C@H](OC(C)=O)[C@]6(CC)C=CCN7CC[C@]54[C@@H]76)C[C@@H](C3)[C@H]1O2.CC[C@]12CN3CCc4c([nH]c5ccccc45)[C@@](C(=O)OC)(c4cc5c(cc4OC)N(C)[C@H]4[C@@](O)(C(=O)OC)[C@H](OC(C)=O)[C@]6(CC)C=CCN7CC[C@]54[C@@H]76)C[C@@H](C3)[C@H]1O2.O=S(=O)(O)O [VINLEUROSINE SULFATE] |
| 7.7 mg/L (≈ 9.33 µM) | CCC(=O)C[C@@H]1CN(C=O)CCc2c([nH]c3ccccc23)[C@@](C(=O)OC)(c2cc3c(cc2OC)N(C)[C@H]2[C@](O)(C(=O)OC)[C@H](OC(C)=O)[C@]4(CC)C=CCN5CC[C@]32[C@@H]54)C1 [CATHARININE] |
